Reference: patent publication US20150023972A1, “COMBINATION PHARMACEUTICAL COMPOSITION AND METHODS OF TREATING AND PREVENTING THE INFECTIOUS DISEASES” (priority 2010, published 2015)
Where two headings read alike, the source gives them in different places. Marks after values point to notes of the source that are not given here.

Tests used:
[1] = test system: influenza virus A/California/07/2009swl (H1N1); type: in vivo, mice; conditions: 10th day after infection; for Survival, % 10LD50: female Balb/c mice, intragastric
influenza = test: open-label comparative controlled clinical study versus Tamiflu in influenza; type: in vivo, human
[2] = test system: influenza virus A/California/07/2009swl (H1N1); type: in vivo, mice; conditions: 10th day after infection; for Survival, % 10LD50: female Balb/c mice, intragastric; remark: listed apart in the source
[3] = Morning Day 1, 37.0° C. and lower

CCOC(=O)C1=C[C@@H](OC(CC)CC)[C@H](NC(C)=O)[C@@H](N)C1 [Oseltamivir]
Difference between % of survival in the group that received medication and % of survival in the group that received distilled water ([1]; stage 1): +60%
Survival, % 10LD50 ([1]; stage 1): 80* %
Difference between % of survival in the group that received medication and % of survival in the group that received distilled water ([1]; stage 2): +65%
Survival, % 10LD50 ([1]; stage 2): 70* %
Mean values of body temperature, M ± SD (influenza; Evening Day 2): 36.9 ± 0.53 °C
Proportion of patients with normal temperature, % (influenza; Evening Day 2): 45.5%
The number of patients with normal temperature (influenza; Evening Day 2): 5
Mean values of body temperature, M ± SD (influenza; Evening, Day 1): 37.3 ± 0.71 °C
Proportion of patients with normal temperature, % (influenza; Evening, Day 1): 9.1%
The number of patients with normal temperature (influenza; Evening, Day 1): 1
Mean values of body temperature, M ± SD (influenza; Evening, Day 3): 36.7 ± 0.46 °C
Proportion of patients with normal temperature, % (influenza; Evening, Day 3): 54.5%
The number of patients with normal temperature (influenza; Evening, Day 3): 6
Mean values of body temperature, M ± SD (influenza; Evening, Day 4): 36.5 ± 0.38 °C
Proportion of patients with normal temperature, % (influenza; Evening, Day 4): 80.0%
The number of patients with normal temperature (influenza; Evening, Day 4): 8
Mean values of body temperature, M ± SD (influenza; Evening, Day 5): 36.5 ± 0.21 °C
Proportion of patients with normal temperature, % (influenza; Evening, Day 5): 90.0%
The number of patients with normal temperature (influenza; Evening, Day 5): 9
Mean values of body temperature, M ± SD (influenza; Evening, Day 6): 36.3 ± 0.19 °C
Proportion of patients with normal temperature, % (influenza; Evening, Day 6): 100.0%
The number of patients with normal temperature (influenza; Evening, Day 6): 7
Mean values of body temperature, M ± SD (influenza; Evening, Day 7): 36.6 ± 0.12 °C
Proportion of patients with normal temperature, % (influenza; Evening, Day 7): 100.0%
The number of patients with normal temperature (influenza; Evening, Day 7): 4
Mean values of body temperature, M ± SD (influenza; Morning Day 1): 38.1 ± 0.82 °C
Proportion of patients with normal temperature, % (influenza; [3]): 0%
The number of patients with normal temperature (influenza; [3]): 0
Mean values of body temperature, M ± SD (influenza; Morning Day 2): 37.3 ± 0.72 °C
Proportion of patients with normal temperature, % (influenza; Morning Day 2): 36.4%
The number of patients with normal temperature (influenza; Morning Day 2): 4
Mean values of body temperature, M ± SD (influenza; Morning Day 3): 36.9 ± 0.47 °C
Proportion of patients with normal temperature, % (influenza; Morning Day 3): 45.5%
The number of patients with normal temperature (influenza; Morning Day 3): 5
Mean values of body temperature, M ± SD (influenza; Morning Day 4): 36.8 ± 0.37 °C
Proportion of patients with normal temperature, % (influenza; Morning Day 4): 90.9%
The number of patients with normal temperature (influenza; Morning Day 4): 10
Mean values of body temperature, M ± SD (influenza; Morning Day 5): 36.7 ± 0.25 °C
Proportion of patients with normal temperature, % (influenza; Morning Day 5): 90.0%
The number of patients with normal temperature (influenza; Morning Day 5): 9
Mean values of body temperature, M ± SD (influenza; Morning Day 6): 36.6 ± 0.21 °C
Proportion of patients with normal temperature, % (influenza; Morning Day 6): 100.0%
The number of patients with normal temperature (influenza; Morning Day 6): 9
Mean values of body temperature, M ± SD (influenza; Morning Day 7): 36.5 ± 0.10 °C
Proportion of patients with normal temperature, % (influenza; Morning Day 7): 100.0%
The number of patients with normal temperature (influenza; Morning Day 7): 5
Mean values of body temperature, M ± SD (influenza; Morning Day 8): 36.5 ± 0.14 °C
Proportion of patients with normal temperature, % (influenza; Morning Day 8): 100.0%
The number of patients with normal temperature (influenza; Morning Day 8): 3
mean number of antipyretic intakes (influenza; by the morning of Day 4 of the therapy): 7.4±0.90
Bacterial complications, Otitis, % (influenza; influenza): 0/0%
Bacterial complications, Pneumonia, % (influenza; influenza): 9.1%
Bacterial complications, Total, % (influenza; influenza): 27.2%
Bacterial complications, Tracheitis, % (influenza; influenza): 18.2%
Difference between % of survival in the group that received medication and % of survival in the group that received distilled water ([2]; stage 1): +60%
Survival, % 10LD50 ([2]; stage 1): 80* %
Difference between % of survival in the group that received medication and % of survival in the group that received distilled water ([2]; stage 2): +65%
Survival, % 10LD50 ([2]; stage 2): 70* %
